The results in this text go back to patent US20060292657A1, “Phex substrates and methods using same” (priority 2003, published 2006).

Common to all, as to type: biochemical
The target in experiment [1] is T1, secPHEX (Homo sapiens, UniProt P78562).
T1 construct: pure soluble form of PHEX (secPHEX); made in house
T1 sequence (P78562 46-749 limits assumed): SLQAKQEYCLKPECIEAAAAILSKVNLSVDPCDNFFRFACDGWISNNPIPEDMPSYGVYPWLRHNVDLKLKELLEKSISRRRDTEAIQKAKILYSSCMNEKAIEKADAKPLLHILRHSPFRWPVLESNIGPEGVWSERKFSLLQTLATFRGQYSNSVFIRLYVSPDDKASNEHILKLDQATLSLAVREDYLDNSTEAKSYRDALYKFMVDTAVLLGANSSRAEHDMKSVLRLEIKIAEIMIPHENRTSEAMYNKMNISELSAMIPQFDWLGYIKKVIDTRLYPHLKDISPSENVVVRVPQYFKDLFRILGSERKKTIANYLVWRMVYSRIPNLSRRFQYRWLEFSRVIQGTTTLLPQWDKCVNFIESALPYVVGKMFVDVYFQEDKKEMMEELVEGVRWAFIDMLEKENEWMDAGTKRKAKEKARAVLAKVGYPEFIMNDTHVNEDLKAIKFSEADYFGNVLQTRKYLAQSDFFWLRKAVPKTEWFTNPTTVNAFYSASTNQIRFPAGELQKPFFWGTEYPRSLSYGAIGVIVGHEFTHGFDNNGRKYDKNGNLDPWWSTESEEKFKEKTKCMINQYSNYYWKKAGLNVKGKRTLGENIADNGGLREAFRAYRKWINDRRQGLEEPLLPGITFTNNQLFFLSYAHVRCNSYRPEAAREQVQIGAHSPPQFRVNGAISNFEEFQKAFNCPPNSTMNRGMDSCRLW
In words: IC50 determination of PHEX inhibitor, fluorigenic substrate assay. Here is the method:
secPHEX enzymatic activity was determined using a fluorigenic substrate where increase of fluorescence was proportional to substrate conversion to products. […] Of these, S3 was the most preferred substrate. S3 was synthesized as described above.
The reaction was carried out in a total volume of 200 μl constituted of buffer (50 mM Mes(NaOH) pH 6.5, 150 mM NaCl) containing various concentrations of the tested PHEX inhibitor (3×10^−5 to 1×10^−11 M) and 100 ng of purified secPHEX. The enzymatic reaction was initiated with the addition of the fluorigenic substrate at a final concentration of 10 μM. The fluorescent reaction product was excited at 320 nm with fluoresce emission read at 420 nm every four minutes over a one-hour period using 96-well plate reader (Perkin-Elmer, HTS-7000™). The initial reaction rate was calculated from the acquired fluorescence-time data as a slope using Microsoft Excell™. Further examples can be found in the co-pending PCT application number PCT/CA03/01893.
IC50 was determined with a plot of the initial rates computed above as a function of inhibitor concentration using the one site competition equation of GraphPad Prism™ version 3.03 (GraphPad™ Software Inc.).

Experiment [2] concerns the target T1, secPHEX. Description: pH activity profile and NaCl dependence of secPHEX hydrolysis. The procedure:
FIG. 2 graphically illustrates pH and NaCl (inset) dependence of Abz-GFSDYK(Dnp)-OH (SEQ ID NO:3) hydrolysis by secPHEX. * k,t/Km values for the hydrolysis of Abz-GFSDYK(Dnp)-OH (SEQ ID NO:3) by PHEX were determined in presence of different buffers and pH conditions as described herein under the heading “Experimental Procedures” below. In the inset, the effect of NaCl is shown: Abz-GFSDYK(Dnp)-OH (SEQ ID NO:3) was incubated with secPHEX in 0.01 M Bis-Tris buffer, pH 5.5 with NaCl (0 to 0.5 M);
The pH dependence was studied using […] of Abz-GFSDYK(Dnp)-OH (SEQ ID NO:3) over a pH range of 3.5 to 8.5. The buffers used were as follows: 0.01 M sodium acetate (3.5<pH<5.1), 0.01 M Bis-Tris (5.1<pH<6.5), 0.01 M Hepes (6.5<pH<7.4) and 0.01 M Tris-HCI (7.4<pH<8.4), containing 0.14 M NaCl. Enzymatic activity was followed at 37° C. using the continuous fluorimetric assay and the apparent second-order rate constant (*kcat/Km) was calculated as described above for each pH.
The influence of salt on secPHEX catalytic activity was investigated using 0.2 μM of Abz-GFSDYK(Dnp)-OH (SEQ ID NO:3) as substrate at 37° C., in 0.01 M Bis-Tris buffer, pH 5.5, over a NaCl range of 0 to 500 mM. The increase in fluorescence was continuously measured at 37° C. and the apparent second-order rate constant (*kcat/Km) for the different NaCl concentrations was calculated as described above.

In experiment [3] the target is T1, secPHEX. Description: Determination of secPHEX activity and concentration in serum with fluorigenic substrate. To be noted: activity determination in serum. Here is the method:
FIG. 6 graphically illustrates the secPHEX enzymatic activity on a fluorigenic substrate of the present invention in rat serum. The observed fluorescence increase was proportional to the reaction product formation. The reaction was carried out in a total volume of 200 μl constituted of buffer: 50 mM Hepes (NaOH) pH 7.4, 150 mM NaCl, 5*10−6 M captopril (ACE inhibitor), containing 10 μl of rat serum in which purified sPHEX was spiked. The enzymatic reaction was initiated by the addition of the fluorigenic substrate (Abz-GFSDYK-Dnp) (SEQ ID NO:3) at a final concentration of 20 μM. The fluorescent reaction product was excited at 320 nm and fluorescence recorded at 420 nm every four minutes over a one-hour period in a 96-well plate reader (Perkin-Elmer, HTS-7000). The initial enzymatic speed rate of the reaction was calculated for each condition. The reaction was carried out in presence of 5 mM EDTA to assess whether the assay is specific to metallopeptidase. Measurements were done in duplicates.
secPHEX enzymatic activity was determined using a fluorigenic substrate where increase of fluorescence was proportional to substrate conversion to products. […] Of these, S3 was the most preferred substrate. […]
The reaction was carried out in a total volume of 200 μl constituted of buffer (50 mM Mes(NaOH) pH 6.5, 150 mM NaCl, 5×10^−6 M captopril (ACE inhibitor)) and serum (preferably between 2 to 50 μl). […] The fluorescent reaction product is excited at 320 nm with fluoresce emission read at 420 nm every four minutes over a one-hour period using 96-well plate reader (Perikin-Elmer, HTS-7000™). The initial reaction rate was calculated from the acquired fluorescence-time data as a slope using Microsoft Excell™. PHEX Enzymatic activity (Vi) was calculated by subtracting to the initial rate of fluorescence (Vitot) with the same measured in presence of EDTA 5 mM (ViEDTA). […]
The actual secPHEX concentration was determined from a calibration curve (Vi Vs secPHEX concentration) obtained by serial dilution of secPHEX in serum or other biological media as required.

Experiment [4] deals with T2, membrane-bound PHEX (mPHEX) (Homo sapiens, UniProt P78562).
T2 construct: expressed in transfected cells; host or cells: LLC-PK1 (porcine kidney cells)
T2 sequence (P78562 whole entry): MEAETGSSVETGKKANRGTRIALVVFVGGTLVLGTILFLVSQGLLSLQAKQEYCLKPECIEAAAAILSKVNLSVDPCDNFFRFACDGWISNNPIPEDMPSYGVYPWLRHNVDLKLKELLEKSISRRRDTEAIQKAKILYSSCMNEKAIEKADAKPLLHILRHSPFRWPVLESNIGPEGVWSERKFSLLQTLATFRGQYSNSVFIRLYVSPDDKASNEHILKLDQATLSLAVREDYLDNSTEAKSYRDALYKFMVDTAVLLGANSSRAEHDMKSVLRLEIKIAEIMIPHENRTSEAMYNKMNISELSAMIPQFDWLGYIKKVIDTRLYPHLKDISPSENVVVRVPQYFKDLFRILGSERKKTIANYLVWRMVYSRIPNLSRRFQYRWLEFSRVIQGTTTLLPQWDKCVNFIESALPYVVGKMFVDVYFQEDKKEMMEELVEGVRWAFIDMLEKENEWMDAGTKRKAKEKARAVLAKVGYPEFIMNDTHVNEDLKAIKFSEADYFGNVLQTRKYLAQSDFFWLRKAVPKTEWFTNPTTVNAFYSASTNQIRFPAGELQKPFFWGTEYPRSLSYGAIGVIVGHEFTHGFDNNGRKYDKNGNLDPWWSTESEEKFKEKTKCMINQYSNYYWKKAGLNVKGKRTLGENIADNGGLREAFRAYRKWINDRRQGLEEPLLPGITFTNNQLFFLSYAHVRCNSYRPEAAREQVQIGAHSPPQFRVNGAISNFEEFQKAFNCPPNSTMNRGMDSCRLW
In words: Membrane-bound PHEX activity with NEP-specific substrate and inhibitor. The settings on record: 10 μM substrate, 30 minutes. Here is the method:
(§1) FIG. 4 graphically illustrates the activity of PHEX in the presence of NEP-specific substrate and inhibitor. NEP, secPHEX and membrane-bound PHEX (mPHEX) activities were measured after 30 minutes of incubation in presence of either 10 μM Abz-DRRL-EDDnp (SEQ ID NO:8) (A) or 10 μM Abz-GFSDYK(Dnp)-OH (SEQ ID NO:3) (B). Fluorescence detection (AFU) at γem=420 nm and γex=320 nm was determined as described under the heading “Experimental Procedures” below. When present, thiorphan, a NEP-specific inhibitor, was at a concentration of 10^−6 M. Data are a compilation of three different experiments;
(§2) The activities of membrane-bound PHEX and secPHEX were also compared with the NEP-specific substrate Abz-DRRL-EDDnp (SEQ ID NO:8) (46).

Experiment [5] deals with T1, secPHEX. Description: secPHEX activity with NEP-specific substrate and inhibitor. To be noted: 10 μM substrate, 30 minutes. The procedure:
as §1, §2

Square brackets hold non-standard residues; d marks the D form. Peptide text beside a SMILES is read from it. * marks the point of attachment. EDDnp = O=[N+]([O-])c1ccc(NCCN*)c([N+](=O)[O-])c1; Dnp = O=[N+]([O-])c1ccc(*)c([N+](=O)[O-])c1; 2Abz = Nc1ccccc1C(=O)O

Turning to `Nc1ccccc1C(=O)NCC(=O)N[C@@H](Cc1ccccc1)C(=O)N[C@@H](CO)C(=O)N[C@@H](CC(=O)O)C(=O)N[C@@H](Cc1ccc(O)cc1)C(=O)N[C@@H](CCCCNc1ccc([N+](=O)[O-])cc1[N+](=O)[O-])C(=O)O` [I-Abz-GFS↓DYK(Dnp)-OH, Abz-GFSDYK(Dnp)-OH] (H-[2Abz]GFSDYK(Dnp)-OH), the “suitability as secPHEX substrate” value in experiment [1] and in experiment [3] was “good secPHEX substrate” each time. Also, the “kcat/Km with 150 mM NaCl lower than in the absence of added salt” value in experiment [2] (10 mM Bis Tris, pH 5,5) is given as “more than 2 fold”. Also, in experiment [2] (pH range of 3.5 to 8.5, 37° C.), the “pH of maximum kcat/Km” value is about 5.5.
For the molecule `CC(C)C[C@H](NC(=O)[C@H](CCCNC(=N)N)NC(=O)[C@H](CCCNC(=N)N)NC(=O)[C@H](CC(=O)O)NC(=O)c1ccccc1N)C(=O)NCCNc1ccc([N+](=O)[O-])cc1[N+](=O)[O-]` [Abz-DRRL-EDDnp] (H-[2Abz]DRRL-EDDnp), the “hydrolysis of NEP-specific substrate” value in experiment [4] and in experiment [5] was “Neither enzyme hydrolyzed this substrate” each time.
